Test results taken from PMC7385619, “A triple action CDK4/6-PI3K-BET inhibitor with augmented cancer cell cytotoxicity” (Cell Discovery, 2020).
Read-outs that look alike come from different tables or passages of the source.

Legend:
Assay in all cases: KINOMEscan assay (Eurofins DiscoverX)
Format in all cases: binding
kinome (kinase panel) [1] = target: T1, kinome (kinase panel) (Homo sapiens, UniProt P36888, R834Q); settings: […]; 1000 nM; read-out: Percent Control
T1 construct: purchased Eurofins DiscoverX

kinome (kinase panel) [2] = target: T2, kinome (kinase panel) (Homo sapiens, UniProt O95382); settings: ASK2 (Entrez MAP3K6); 1000 nM; read-out: Percent Control
T2 construct: purchased Eurofins DiscoverX

kinome (kinase panel) [3] = target: T3, kinome (kinase panel) (Homo sapiens, UniProt O95835); settings: LATS1; 1000 nM; read-out: Percent Control
T3 construct: purchased Eurofins DiscoverX

kinome (kinase panel) [4] = target: T4, kinome (kinase panel) (Homo sapiens, UniProt P11362); settings: FGFR1; 1000 nM; read-out: Percent Control
T4 construct: purchased Eurofins DiscoverX

kinome (kinase panel) [5] = target: T5, kinome (kinase panel) (Homo sapiens, UniProt P06239); settings: LCK; 1000 nM; read-out: Percent Control
T5 construct: purchased Eurofins DiscoverX

kinome (kinase panel) [6] = target: T6, kinome (kinase panel) (Homo sapiens, UniProt P04629); settings: TRKA (NTRK1); 1000 nM; read-out: Percent Control
T6 construct: purchased Eurofins DiscoverX

kinome (kinase panel) [7] = target: T7, kinome (kinase panel) (Homo sapiens, UniProt Q14012); settings: CAMK1; 1000 nM; read-out: Percent Control
T7 construct: purchased Eurofins DiscoverX

kinome (kinase panel) [8] = target: T8, kinome (kinase panel) (Homo sapiens, UniProt P42681); settings: TXK; 1000 nM; read-out: Percent Control
T8 construct: purchased Eurofins DiscoverX

kinome (kinase panel) [9] = target: T9, kinome (kinase panel) (Homo sapiens, UniProt Q8N5S9); settings: CAMKK1; 1000 nM; read-out: Percent Control
T9 construct: purchased Eurofins DiscoverX

kinome (kinase panel) [10] = target: T10, kinome (kinase panel) (Homo sapiens, UniProt Q14289); settings: PYK2 (Entrez PTK2B); 1000 nM; read-out: Percent Control
T10 construct: purchased Eurofins DiscoverX

kinome (kinase panel) [11] = settings: for Percent Control: 1000 nM
kinome (kinase panel) [12] = target: T11, kinome (kinase panel) (Homo sapiens, UniProt P35590); settings: TIE1; 1000 nM; read-out: Percent Control
T11 construct: purchased Eurofins DiscoverX

kinome (kinase panel) [13] = target: T12, kinome (kinase panel) (Homo sapiens, UniProt P41240); settings: CSK; 1000 nM; read-out: Percent Control
T12 construct: purchased Eurofins DiscoverX

kinome (kinase panel) [14] = target: T13, kinome (kinase panel) (Homo sapiens, UniProt P31751); settings: AKT2; 1000 nM; read-out: Percent Control
T13 construct: purchased Eurofins DiscoverX

kinome (kinase panel) [15] = target: T14, kinome (kinase panel) (Homo sapiens, UniProt P53779); settings: JNK3 (Entrez MAPK10); 1000 nM; read-out: Percent Control
T14 construct: purchased Eurofins DiscoverX

kinome (kinase panel) [16] = target: T15, kinome (kinase panel) (Homo sapiens, UniProt Q06418); settings: TYRO3; 1000 nM; read-out: Percent Control
T15 construct: purchased Eurofins DiscoverX

kinome (kinase panel) [17] = target: T16, kinome (kinase panel) (Homo sapiens, UniProt P51956); settings: NEK3; 1000 nM; read-out: Percent Control
T16 construct: purchased Eurofins DiscoverX

kinome (kinase panel) [18] = target: T17, kinome (kinase panel) (Homo sapiens, UniProt P08922); settings: ROS1; 1000 nM; read-out: Percent Control
T17 construct: purchased Eurofins DiscoverX

kinome (kinase panel) [19] = target: T18, kinome (kinase panel) (Homo sapiens, UniProt Q8WU08); settings: YANK1 (STK32A); 1000 nM; read-out: Percent Control
T18 construct: purchased Eurofins DiscoverX

kinome (kinase panel) [20] = target: T19, kinome (kinase panel) (Homo sapiens, UniProt P23443); settings: S6K1 (RPS6KB1); 1000 nM; read-out: Percent Control
T19 construct: purchased Eurofins DiscoverX

kinome (kinase panel) [21] = target: T20, kinome (kinase panel) (Homo sapiens, UniProt P53355); settings: DAPK1; 1000 nM; read-out: Percent Control
T20 construct: purchased Eurofins DiscoverX

kinome (kinase panel) [22] = target: T21, kinome (kinase panel) (Homo sapiens, UniProt P42685); settings: FRK; 1000 nM; read-out: Percent Control
T21 construct: purchased Eurofins DiscoverX

kinome (kinase panel) [23] = target: T22, kinome (kinase panel) (Homo sapiens, UniProt P45983); settings: JNK1 (Entrez MAPK8); 1000 nM; read-out: Percent Control
T22 construct: purchased Eurofins DiscoverX

kinome (kinase panel) [24] = target: T23, kinome (kinase panel) (Homo sapiens, UniProt P06213); settings: INSR; 1000 nM; read-out: Percent Control
T23 construct: purchased Eurofins DiscoverX

kinome (kinase panel) [25] = target: T24, kinome (kinase panel) (Homo sapiens, UniProt P51812); settings: 1000 nM, read-out: Percent Control
T24 construct: purchased Eurofins DiscoverX

kinome (kinase panel) [26] = target: T25, kinome (kinase panel) (Homo sapiens, UniProt O75460); settings: ERN1; 1000 nM; read-out: Percent Control
T25 construct: purchased Eurofins DiscoverX

kinome (kinase panel) [27] = target: T26, kinome (kinase panel) (Homo sapiens, UniProt Q02779); settings: MLK2 (Entrez MAP3K10); 1000 nM; read-out: Percent Control
T26 construct: purchased Eurofins DiscoverX

kinome (kinase panel) [28] = target: T27, kinome (kinase panel) (Homo sapiens, UniProt Q9BZL6); settings: PRKD2; 1000 nM; read-out: Percent Control
T27 construct: purchased Eurofins DiscoverX

kinome (kinase panel) [29] = target: T28, kinome (kinase panel) (Homo sapiens, UniProt Q08881); settings: ITK; 1000 nM; read-out: Percent Control
T28 construct: purchased Eurofins DiscoverX

kinome (kinase panel) [30] = target: T29, kinome (kinase panel) (Homo sapiens, UniProt Q9UKI8); settings: TLK1; 1000 nM; read-out: Percent Control
T29 construct: purchased Eurofins DiscoverX

kinome (kinase panel) [31] = target: T30, kinome (kinase panel) (Homo sapiens, UniProt Q8IWQ3); settings: BRSK2; 1000 nM; read-out: Percent Control
T30 construct: purchased Eurofins DiscoverX

T24 sequence (P51812 whole entry): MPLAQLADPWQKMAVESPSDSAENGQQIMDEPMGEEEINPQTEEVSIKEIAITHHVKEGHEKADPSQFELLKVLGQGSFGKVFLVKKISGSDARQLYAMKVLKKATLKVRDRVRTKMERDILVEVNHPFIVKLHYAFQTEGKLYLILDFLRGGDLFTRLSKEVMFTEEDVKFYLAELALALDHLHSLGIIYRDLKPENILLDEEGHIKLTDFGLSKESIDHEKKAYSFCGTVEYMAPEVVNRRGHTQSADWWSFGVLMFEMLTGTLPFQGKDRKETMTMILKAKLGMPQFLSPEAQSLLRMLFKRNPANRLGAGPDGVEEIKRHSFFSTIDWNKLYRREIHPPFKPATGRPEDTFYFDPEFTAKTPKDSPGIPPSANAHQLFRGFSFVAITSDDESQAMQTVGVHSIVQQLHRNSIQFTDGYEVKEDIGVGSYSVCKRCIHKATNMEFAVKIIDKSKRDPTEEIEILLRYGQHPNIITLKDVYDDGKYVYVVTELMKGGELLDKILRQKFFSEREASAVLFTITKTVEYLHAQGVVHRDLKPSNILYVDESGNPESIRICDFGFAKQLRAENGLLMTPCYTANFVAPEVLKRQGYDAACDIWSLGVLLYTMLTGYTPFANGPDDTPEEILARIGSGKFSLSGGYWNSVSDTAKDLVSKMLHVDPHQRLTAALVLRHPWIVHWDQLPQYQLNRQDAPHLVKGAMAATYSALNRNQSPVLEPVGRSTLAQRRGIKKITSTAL
T22 sequence (P45983 whole entry): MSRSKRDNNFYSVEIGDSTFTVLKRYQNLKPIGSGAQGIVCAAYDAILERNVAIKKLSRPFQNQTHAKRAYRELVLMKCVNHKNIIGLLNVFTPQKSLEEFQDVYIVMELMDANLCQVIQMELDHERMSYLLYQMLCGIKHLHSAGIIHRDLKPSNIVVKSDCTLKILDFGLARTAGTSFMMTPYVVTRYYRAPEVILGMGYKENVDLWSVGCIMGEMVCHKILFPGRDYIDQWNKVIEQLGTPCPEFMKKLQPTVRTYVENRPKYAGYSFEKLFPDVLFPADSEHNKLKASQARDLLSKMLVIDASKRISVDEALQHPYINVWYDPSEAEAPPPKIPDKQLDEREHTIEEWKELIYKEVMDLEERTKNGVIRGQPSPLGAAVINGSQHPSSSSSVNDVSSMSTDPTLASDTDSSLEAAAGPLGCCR
T26 sequence (Q02779 whole entry): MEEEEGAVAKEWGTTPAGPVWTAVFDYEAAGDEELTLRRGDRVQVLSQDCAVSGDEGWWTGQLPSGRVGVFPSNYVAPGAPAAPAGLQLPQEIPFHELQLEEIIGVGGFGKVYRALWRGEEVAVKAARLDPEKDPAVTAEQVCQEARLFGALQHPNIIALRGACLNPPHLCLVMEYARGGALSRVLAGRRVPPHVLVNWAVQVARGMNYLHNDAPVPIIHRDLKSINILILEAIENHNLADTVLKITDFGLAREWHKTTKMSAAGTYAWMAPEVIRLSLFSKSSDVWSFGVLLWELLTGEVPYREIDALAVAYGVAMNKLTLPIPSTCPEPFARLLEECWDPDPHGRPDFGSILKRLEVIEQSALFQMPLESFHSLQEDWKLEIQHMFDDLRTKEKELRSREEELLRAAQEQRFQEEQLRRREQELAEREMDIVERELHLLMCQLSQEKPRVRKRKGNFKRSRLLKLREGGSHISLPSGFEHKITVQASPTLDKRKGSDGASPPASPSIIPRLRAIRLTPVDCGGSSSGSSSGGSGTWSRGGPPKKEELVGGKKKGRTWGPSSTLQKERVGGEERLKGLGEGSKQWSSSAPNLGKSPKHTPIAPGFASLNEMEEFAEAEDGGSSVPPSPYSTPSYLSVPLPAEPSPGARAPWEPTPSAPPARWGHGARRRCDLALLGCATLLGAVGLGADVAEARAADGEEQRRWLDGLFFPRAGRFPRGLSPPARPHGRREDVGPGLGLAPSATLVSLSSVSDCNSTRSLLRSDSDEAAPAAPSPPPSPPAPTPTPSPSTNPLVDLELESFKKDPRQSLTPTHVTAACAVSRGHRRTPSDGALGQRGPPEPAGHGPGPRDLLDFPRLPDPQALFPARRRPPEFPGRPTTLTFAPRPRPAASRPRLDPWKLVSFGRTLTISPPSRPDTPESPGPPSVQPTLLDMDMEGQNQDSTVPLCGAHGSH
T21 sequence (P42685 whole entry): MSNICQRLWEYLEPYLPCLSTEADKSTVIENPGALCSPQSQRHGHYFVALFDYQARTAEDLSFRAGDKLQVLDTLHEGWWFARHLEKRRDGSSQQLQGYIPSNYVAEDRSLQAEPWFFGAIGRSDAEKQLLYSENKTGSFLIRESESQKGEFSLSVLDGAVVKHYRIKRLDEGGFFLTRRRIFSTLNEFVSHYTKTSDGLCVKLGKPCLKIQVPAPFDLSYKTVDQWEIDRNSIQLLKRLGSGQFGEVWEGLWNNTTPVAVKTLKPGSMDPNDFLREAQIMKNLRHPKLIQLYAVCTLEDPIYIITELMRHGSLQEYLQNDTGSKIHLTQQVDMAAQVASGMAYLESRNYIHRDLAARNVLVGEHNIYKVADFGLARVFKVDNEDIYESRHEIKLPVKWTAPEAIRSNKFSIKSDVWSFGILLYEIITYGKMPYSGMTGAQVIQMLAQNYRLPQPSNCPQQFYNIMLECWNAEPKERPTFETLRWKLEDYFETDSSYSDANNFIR
T27 sequence (Q9BZL6 whole entry): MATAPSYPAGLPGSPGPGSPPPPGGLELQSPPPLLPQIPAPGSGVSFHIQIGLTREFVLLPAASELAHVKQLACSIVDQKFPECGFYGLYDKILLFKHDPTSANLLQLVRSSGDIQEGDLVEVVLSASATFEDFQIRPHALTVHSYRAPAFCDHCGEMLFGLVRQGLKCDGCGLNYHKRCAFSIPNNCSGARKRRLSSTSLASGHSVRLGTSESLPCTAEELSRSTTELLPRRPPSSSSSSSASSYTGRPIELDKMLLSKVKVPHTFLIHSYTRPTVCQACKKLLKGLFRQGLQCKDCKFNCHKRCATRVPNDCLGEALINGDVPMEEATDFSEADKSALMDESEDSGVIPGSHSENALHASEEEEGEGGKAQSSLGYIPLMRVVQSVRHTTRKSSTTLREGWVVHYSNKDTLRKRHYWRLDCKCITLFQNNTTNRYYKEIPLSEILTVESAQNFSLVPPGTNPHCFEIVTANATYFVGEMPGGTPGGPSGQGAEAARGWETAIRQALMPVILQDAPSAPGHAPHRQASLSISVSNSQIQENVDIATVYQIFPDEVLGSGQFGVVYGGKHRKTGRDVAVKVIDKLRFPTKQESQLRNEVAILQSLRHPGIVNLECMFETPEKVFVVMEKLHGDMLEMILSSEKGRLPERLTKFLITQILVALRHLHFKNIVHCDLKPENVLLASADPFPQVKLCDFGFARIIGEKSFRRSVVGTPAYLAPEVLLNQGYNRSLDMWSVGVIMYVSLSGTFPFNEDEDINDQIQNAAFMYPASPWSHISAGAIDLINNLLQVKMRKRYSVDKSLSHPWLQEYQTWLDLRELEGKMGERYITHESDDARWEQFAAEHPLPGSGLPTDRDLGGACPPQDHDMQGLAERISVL
T25 sequence (O75460 19-977): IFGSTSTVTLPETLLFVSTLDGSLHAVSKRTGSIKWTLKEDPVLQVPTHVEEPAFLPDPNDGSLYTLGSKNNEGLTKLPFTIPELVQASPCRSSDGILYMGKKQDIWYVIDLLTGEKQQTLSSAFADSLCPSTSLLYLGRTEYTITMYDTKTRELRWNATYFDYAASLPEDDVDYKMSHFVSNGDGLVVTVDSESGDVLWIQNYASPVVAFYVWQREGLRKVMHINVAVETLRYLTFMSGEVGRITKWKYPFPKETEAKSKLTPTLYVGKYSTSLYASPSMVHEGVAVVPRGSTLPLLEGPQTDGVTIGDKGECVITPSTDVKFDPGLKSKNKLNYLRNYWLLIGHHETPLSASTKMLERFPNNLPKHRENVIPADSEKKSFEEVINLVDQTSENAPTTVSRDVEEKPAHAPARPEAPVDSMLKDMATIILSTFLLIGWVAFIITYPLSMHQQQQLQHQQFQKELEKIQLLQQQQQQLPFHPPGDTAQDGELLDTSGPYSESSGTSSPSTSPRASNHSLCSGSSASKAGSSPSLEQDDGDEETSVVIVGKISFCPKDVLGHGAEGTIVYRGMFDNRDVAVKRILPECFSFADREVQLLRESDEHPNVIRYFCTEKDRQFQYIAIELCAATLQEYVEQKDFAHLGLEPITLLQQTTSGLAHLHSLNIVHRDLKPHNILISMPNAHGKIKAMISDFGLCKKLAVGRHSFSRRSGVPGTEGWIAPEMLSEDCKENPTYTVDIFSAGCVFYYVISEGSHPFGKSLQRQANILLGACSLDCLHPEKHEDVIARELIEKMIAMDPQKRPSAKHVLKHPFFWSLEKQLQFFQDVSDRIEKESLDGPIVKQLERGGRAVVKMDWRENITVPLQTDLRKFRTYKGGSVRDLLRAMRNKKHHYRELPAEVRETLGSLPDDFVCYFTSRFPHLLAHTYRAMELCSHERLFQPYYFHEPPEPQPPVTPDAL
T9 sequence (Q8N5S9 whole entry): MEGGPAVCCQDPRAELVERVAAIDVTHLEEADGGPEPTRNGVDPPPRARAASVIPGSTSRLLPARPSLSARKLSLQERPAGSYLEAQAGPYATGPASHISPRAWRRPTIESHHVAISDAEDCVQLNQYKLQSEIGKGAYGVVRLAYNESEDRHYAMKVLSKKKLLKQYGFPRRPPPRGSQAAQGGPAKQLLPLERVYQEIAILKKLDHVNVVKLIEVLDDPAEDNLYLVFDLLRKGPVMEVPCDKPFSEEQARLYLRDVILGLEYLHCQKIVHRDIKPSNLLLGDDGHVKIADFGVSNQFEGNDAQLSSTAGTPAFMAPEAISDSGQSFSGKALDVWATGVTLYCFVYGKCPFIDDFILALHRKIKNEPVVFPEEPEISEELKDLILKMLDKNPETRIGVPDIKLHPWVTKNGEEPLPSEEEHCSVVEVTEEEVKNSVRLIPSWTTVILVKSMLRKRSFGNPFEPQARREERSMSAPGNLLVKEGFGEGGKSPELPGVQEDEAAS

CN(C)C(=O)c1cc2cnc(Nc3ccc(-c4csc5c(=O)cc(N6CCOCC6)oc45)cc3)nc2n1C1CCCC1 [SRX3177]
remaining binding at 1 µM (kinome (kinase panel) [1]): 38%
remaining binding at 1 µM (kinome (kinase panel) [2]): 91%
remaining binding at 1 µM (kinome (kinase panel) [3]): 91%
remaining binding at 1 µM (kinome (kinase panel) [4]): 100%
remaining binding at 1 µM (kinome (kinase panel) [5]): 79%
remaining binding at 1 µM (kinome (kinase panel) [6]): 1.1%
remaining binding at 1 µM (kinome (kinase panel) [7]): 51%
remaining binding at 1 µM (kinome (kinase panel) [8]): 98%
remaining binding at 1 µM (kinome (kinase panel) [9]): 46%
remaining binding at 1 µM (kinome (kinase panel) [10]): 100%
specificity in KINOMEscan (kinome (kinase panel) [11]): lack of off-targeting
Percent Control (kinome (kinase panel) [11]; EGFR(L747-E749del, A750P)): 100
Percent Control (kinome (kinase panel) [11]; EGFR(L747-S752del, P753S)): 65
Percent Control (kinome (kinase panel) [11]; EGFR(L747-T751del,Sins)): 75
Percent Control (kinome (kinase panel) [11]; FLT3(ITD)): 49
Percent Control (kinome (kinase panel) [11]; FLT3(ITD,D835V)): 27
Percent Control (kinome (kinase panel) [11]; FLT3(ITD,F691L)): 45
remaining binding at 1 µM (kinome (kinase panel) [12]): 77%
remaining binding at 1 µM (kinome (kinase panel) [13]): 100%
remaining binding at 1 µM (kinome (kinase panel) [14]): 98%
remaining binding at 1 µM (kinome (kinase panel) [15]): 55%
remaining binding at 1 µM (kinome (kinase panel) [16]): 100%
remaining binding at 1 µM (kinome (kinase panel) [17]): 90%
remaining binding at 1 µM (kinome (kinase panel) [18]): 96%
remaining binding at 1 µM (kinome (kinase panel) [19]): 94%
remaining binding at 1 µM (kinome (kinase panel) [20]): 95%
remaining binding at 1 µM (kinome (kinase panel) [21]): 100%
remaining binding at 1 µM (kinome (kinase panel) [22]): 100%
remaining binding at 1 µM (kinome (kinase panel) [23]): 62%
remaining binding at 1 µM (kinome (kinase panel) [24]): 47%
remaining binding at 1 µM (kinome (kinase panel) [25]; RSK2(Kin.Dom.1-N-terminal) (RPS6KA3)): 80%
remaining binding at 1 µM (kinome (kinase panel) [25]; RSK2(Kin.Dom.2-C-terminal) (RPS6KA3)): 100%
remaining binding at 1 µM (kinome (kinase panel) [26]): 85%
remaining binding at 1 µM (kinome (kinase panel) [27]): 100%
remaining binding at 1 µM (kinome (kinase panel) [28]): 100%
remaining binding at 1 µM (kinome (kinase panel) [29]): 90%
remaining binding at 1 µM (kinome (kinase panel) [30]): 94%
remaining binding at 1 µM (kinome (kinase panel) [31]): 100%
